Experimental findings from publication PMC7883873, “Discovery of New Catalytic Topoisomerase II Inhibitors for Anticancer Therapeutics” (Frontiers in Oncology, 2021) are described below.

In one assay the test system is K562 cells. The assay is described as follows: Cell proliferation, MTS assay. It counts as cell-based. As to conditions: 0-20 µM, 0-72 h. The method, then: (§1) Cell proliferation rates were measured by using the CellTitre 96 AqueousOne kit (Promega) and bromodeoxyuridine (BrdU) assay kit (Millipore) according to the manufacturer’s protocol as we have described ([51]). Cytotoxicity was evaluated by using the commercial kit (CAT# 8078, ThermoFisher). Culture media was collected and used to measure lactate dehydrogenase (LDH) levels by a colorimetric method following the manufacture’s protocol (ThermoFisher). Cell cycling was assessed by using BrdU incorporation into S-phase DNA by using the APC BrdU flow kit (BD Pharmingen; Franklin Lakes, New Jersey) according to the manufacturer’s protocol. 1 mM of BrdU was added to cells and incubated for 6 h. Cells were incubated with anti-BrdU antibody and stained with 7-AAD before processing the cells for flow cytometry ([52]). Immunoblotting assays followed the standard protocol as we have reported ([51]–[53]).
(Tetrazolium dyes change colour on reduction, which living cells bring about.)

The test system of assay [1] is HeLa cells. The assay is described as follows: BrdU incorporation assay. Type of assay: cell-based. The note with it: 20 µM, 48 h. The method, then:
as §1
(In general: Uptake of a labelled nucleoside into DNA is a usual measure of proliferation.)

Assay [2] has as its system HeLa cells. Description: Confocal fluorescence microscopy. It counts as cell-based. As to conditions: 20 µM, 48 h. The protocol: Cells were fixed with 4% paraformaldehyde, treated in 0.25% Triton X-100 for 15 min, incubated with F-actin conjugated to Phalloidin-iFluor 488 (Abcam; UK), and mounted with DAPI staining mount (Vector Labs; Burlingame, USA). Cell images were captured by confocal microscopy at 63× magnification (Zeiss; Germany) ([51], [53]).

In a further assay the test system is K562 xenografts. Description: K562 xenografts, intra-tumor polymeric paste. Type of assay: in vivo, nude mice (Nu/Nu). As to conditions: single 30 µl paste, 1% T60 or T633, 0.3% etoposide. The protocol: The polymeric paste was prepared with 50% poly-DL-lactide-coglycolide (PLGA) and 50% PEG 300 (w/w) as we have reported ([57]). […] The density of the paste was determined to be 1.2 g/ml ( ± 3%). One million K562 cells were inoculated subcutaneously in bilateral flanks of nude mice (Nu/Nu). […] Tumor volumes were measured every three days and were calculated by length × width × depth × 0.5236. Mice were euthanized when tumor volumes reached 15% of body weight or weight loss >20% occurred. The remaining mice were euthanized after the control group was euthanized. All animal procedures were under the guidelines of the Canadian Council on Animal Care and were approved by the UBC Animal Care Committee (# A19-0256).

For assay [3], the target named is T1, TOP2B (Homo sapiens, UniProt Q02880). The assay is described as follows: K-DNA decatenation assay. It counts as biochemical. On the set-up: full-length human TOP2A and TOP2B protein (TopoGEN and Inspiralis respectively); purchased Inspiralis HTB205. As to conditions: densitometry of D-DNA bands; read-out: IC50, inhibition of TOP2B K-DNA decatenation. The method, then: (§2) The human TOP2 assay kit (#TG1001, TopoGEN, Buena Vista, CO) and TOP2B (HTB205, Inspiralis, UK) were used for K-DNA decatenation assays. […] The reaction was incubated at 37C for 2 h after which 4 µl stop solution (5× buffer is 5% Sarkosyl, 0.125% bromophenol blue, 25% glycerol) was added. The reaction was resolved by electrophoresis on a 0.8% agarose gel at 60 V and stained with 0.5 µg/ml ethidium bromide for 15 min. DNA bands were visualized using a gel imager (Gel Doc™ EZ System) and quantified using the Image Studio™ Lite Quantification Software.
Target sequence in this assay (Q02880 whole entry): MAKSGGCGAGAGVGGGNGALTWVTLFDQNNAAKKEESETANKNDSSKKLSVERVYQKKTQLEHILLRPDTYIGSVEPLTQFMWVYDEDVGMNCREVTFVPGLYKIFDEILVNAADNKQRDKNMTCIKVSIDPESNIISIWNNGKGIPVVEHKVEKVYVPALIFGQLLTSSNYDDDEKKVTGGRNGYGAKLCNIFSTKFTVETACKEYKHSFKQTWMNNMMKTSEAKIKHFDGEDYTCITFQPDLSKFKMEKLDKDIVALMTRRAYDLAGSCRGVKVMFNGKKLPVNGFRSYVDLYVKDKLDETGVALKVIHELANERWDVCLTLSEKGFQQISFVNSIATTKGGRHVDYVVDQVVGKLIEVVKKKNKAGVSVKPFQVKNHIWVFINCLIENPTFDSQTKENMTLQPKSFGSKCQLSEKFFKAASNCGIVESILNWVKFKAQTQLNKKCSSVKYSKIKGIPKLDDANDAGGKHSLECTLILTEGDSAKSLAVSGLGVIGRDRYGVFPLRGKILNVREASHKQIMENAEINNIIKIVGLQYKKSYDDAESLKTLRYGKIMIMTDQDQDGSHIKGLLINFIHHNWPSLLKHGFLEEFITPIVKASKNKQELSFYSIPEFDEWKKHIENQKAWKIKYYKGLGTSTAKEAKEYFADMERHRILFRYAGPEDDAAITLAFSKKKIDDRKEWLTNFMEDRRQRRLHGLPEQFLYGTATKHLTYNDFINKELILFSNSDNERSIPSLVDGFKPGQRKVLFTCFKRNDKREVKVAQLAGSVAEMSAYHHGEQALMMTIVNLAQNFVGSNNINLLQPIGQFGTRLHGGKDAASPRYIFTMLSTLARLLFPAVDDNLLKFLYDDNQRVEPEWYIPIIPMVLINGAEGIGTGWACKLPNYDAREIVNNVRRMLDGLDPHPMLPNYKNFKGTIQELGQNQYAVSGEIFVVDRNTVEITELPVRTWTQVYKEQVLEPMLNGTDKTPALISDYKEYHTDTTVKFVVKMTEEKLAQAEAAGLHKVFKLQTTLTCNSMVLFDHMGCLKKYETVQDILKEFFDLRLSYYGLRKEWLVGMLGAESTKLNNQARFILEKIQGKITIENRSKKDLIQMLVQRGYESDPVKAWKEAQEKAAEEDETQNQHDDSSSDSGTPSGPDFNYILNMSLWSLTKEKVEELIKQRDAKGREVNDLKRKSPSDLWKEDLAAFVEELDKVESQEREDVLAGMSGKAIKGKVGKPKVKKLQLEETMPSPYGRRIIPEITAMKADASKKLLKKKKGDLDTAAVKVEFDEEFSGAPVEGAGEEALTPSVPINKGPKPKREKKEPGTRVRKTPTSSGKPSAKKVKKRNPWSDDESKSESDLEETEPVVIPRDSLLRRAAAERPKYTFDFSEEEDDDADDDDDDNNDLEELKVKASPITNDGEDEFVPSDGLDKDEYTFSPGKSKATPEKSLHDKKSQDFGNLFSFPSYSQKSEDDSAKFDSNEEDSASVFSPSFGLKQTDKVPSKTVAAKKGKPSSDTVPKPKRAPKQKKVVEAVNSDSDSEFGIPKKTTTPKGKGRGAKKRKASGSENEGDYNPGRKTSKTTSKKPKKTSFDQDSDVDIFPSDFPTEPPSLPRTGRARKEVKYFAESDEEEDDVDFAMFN

Assay [4] has as its target T2, TOP2A (Homo sapiens, UniProt P11388). Description: Relaxation and K-DNA decatenation assays of candidates and T60 derivatives (SAR). As to conditions: compared with T60. It counts as biochemical. Further details: full-length human TOP2A and TOP2B protein (TopoGEN and Inspiralis respectively); purchased TopoGEN TG1001 (human TOP2 assay kit). The protocol: as §2
The human TOP2A and TOP2B were used to perform DNA relaxation assays. […] The reaction was incubated at 37C for 2 h and stopped by adding 2 µl of 10% SDS and 1 µl of 250 mM of EDTA, followed by the addition of 50 µg/ml of proteinase K at 45 C for 1 h. The reaction was then resolved by electrophoresis on a 1% agarose gel at 80 V and stained with 0.5 µg/ml ethidium bromide for 15 min. DNA bands were visualized using a gel imager (Gel Doc™ EZ System) and quantified using the Image Studio™ Lite Quantification Software.

Assay [5] has as its target T2, TOP2A. Description: Cellular thermal shift assay. Type of assay: cell-based. Further details: endogenous in cells; host or cells: K562 (the thermal shift text says HeLa, the legend says K562); K562 for chromatin fractionation. As to conditions: 20 µM; vehicle 40C; Hela cells. The protocol: (§3) In the thermal shift assays, cells were treated with vehicle or T60 for 1 h and split into equal aliquots to be heated at 37 to 46°. Protein lyses were collected to perform immunoblotting assays with TOP2 antibodies (Abcam 12318, Santa Cruz sc-13059 & sc-365071). Our chromatin fractionation assays followed the protocol as previously described (Méndez & Stillman, 2000; Wysocka, Reilly, & Herr, 2001). Briefly, K562 cells (4 × 10 ([7]) cells/ml) were collected and re-suspended in buffer A (10 mM HEPES [pH 7.9], 10 mM KCl, 1.5 mM MgCl2, 0.34 M sucrose, 10% glycerol, 1 mM DTT, and protease inhibitor cocktail), before Triton X-100 was added to final concentration at 0.1%. Cells were then incubated on ice for 10 min, and nuclei were collected by centrifugation at speed of 1,300g for 4 min at 4°C. The nuclei were then washed once with buffer A and then incubated with buffer B (3 mM EDTA, 0.2 mM EGTA, 1 mM DTT, and protease inhibitor cocktail [ROCHE]) for 30 min in ice. Insoluble chromatin was collected by centrifugation at 1,700g for 4 min at 4°C, and washed once with buffer B. Chromatin associated proteins were extracted by incubation with Buffer C [500 mM Tris-HCl (pH 6.8), 500 mM NaCl, and protease inhibitor cocktail (ROCHE)] followed by brief sonication. The supernatant was collected to perform immunoblotting assays with TOP2 antibodies as we have described ([51]–[53]).

For assay [6], the target named is T1, TOP2B. Description: Cellular thermal shift assay. Type of assay: cell-based. Further details: endogenous in cells; host or cells: K562 (the thermal shift text says HeLa, the legend says K562); K562 for chromatin fractionation. As to conditions: 20 µM; vehicle 40C; Hela cells. The method, then: as §3
Target sequence in this assay (Q02880 2-1626 limits assumed): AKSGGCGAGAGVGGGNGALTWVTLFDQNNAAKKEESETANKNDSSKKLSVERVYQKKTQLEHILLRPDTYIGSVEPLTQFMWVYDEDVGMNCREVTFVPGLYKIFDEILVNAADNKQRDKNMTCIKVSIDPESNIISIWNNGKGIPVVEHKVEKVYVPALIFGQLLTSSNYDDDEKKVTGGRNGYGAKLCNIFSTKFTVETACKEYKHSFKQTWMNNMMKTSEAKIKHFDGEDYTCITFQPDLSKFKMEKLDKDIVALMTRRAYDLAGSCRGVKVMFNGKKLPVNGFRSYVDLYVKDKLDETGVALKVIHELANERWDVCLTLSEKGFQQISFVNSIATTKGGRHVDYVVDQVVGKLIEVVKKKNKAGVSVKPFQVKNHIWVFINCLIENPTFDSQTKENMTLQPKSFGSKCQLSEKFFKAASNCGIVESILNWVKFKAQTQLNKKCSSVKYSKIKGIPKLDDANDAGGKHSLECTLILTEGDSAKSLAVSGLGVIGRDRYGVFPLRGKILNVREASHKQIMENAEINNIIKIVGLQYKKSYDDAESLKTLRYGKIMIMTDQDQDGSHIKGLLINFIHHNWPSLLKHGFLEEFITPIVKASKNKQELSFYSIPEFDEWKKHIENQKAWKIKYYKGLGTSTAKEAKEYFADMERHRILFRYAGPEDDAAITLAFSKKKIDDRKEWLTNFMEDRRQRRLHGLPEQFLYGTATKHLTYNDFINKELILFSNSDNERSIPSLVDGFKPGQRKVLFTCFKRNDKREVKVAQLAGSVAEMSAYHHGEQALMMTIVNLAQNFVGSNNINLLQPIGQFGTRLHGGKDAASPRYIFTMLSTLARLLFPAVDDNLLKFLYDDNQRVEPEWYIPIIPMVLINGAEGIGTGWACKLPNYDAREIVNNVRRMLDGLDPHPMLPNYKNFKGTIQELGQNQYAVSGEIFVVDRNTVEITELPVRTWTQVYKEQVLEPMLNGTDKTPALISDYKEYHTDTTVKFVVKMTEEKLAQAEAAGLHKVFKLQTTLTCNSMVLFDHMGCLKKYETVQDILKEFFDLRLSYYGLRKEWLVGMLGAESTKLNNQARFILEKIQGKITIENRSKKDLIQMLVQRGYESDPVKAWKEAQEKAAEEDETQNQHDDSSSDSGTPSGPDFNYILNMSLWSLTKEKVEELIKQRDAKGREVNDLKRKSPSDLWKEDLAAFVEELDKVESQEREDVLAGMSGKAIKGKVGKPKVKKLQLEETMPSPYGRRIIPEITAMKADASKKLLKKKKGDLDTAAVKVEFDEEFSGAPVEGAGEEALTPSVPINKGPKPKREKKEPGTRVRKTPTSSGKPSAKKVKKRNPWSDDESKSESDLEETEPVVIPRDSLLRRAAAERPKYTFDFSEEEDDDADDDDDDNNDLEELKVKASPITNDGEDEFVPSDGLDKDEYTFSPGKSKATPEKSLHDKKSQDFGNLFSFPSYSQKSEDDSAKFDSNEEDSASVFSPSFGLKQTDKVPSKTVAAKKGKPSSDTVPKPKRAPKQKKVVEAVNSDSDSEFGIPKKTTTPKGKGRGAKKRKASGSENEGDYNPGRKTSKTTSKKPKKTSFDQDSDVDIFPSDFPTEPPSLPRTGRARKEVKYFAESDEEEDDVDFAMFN

As a reminder, the IC50 is the concentration needed to halve the response being measured.

T2 sequence (P11388 whole entry): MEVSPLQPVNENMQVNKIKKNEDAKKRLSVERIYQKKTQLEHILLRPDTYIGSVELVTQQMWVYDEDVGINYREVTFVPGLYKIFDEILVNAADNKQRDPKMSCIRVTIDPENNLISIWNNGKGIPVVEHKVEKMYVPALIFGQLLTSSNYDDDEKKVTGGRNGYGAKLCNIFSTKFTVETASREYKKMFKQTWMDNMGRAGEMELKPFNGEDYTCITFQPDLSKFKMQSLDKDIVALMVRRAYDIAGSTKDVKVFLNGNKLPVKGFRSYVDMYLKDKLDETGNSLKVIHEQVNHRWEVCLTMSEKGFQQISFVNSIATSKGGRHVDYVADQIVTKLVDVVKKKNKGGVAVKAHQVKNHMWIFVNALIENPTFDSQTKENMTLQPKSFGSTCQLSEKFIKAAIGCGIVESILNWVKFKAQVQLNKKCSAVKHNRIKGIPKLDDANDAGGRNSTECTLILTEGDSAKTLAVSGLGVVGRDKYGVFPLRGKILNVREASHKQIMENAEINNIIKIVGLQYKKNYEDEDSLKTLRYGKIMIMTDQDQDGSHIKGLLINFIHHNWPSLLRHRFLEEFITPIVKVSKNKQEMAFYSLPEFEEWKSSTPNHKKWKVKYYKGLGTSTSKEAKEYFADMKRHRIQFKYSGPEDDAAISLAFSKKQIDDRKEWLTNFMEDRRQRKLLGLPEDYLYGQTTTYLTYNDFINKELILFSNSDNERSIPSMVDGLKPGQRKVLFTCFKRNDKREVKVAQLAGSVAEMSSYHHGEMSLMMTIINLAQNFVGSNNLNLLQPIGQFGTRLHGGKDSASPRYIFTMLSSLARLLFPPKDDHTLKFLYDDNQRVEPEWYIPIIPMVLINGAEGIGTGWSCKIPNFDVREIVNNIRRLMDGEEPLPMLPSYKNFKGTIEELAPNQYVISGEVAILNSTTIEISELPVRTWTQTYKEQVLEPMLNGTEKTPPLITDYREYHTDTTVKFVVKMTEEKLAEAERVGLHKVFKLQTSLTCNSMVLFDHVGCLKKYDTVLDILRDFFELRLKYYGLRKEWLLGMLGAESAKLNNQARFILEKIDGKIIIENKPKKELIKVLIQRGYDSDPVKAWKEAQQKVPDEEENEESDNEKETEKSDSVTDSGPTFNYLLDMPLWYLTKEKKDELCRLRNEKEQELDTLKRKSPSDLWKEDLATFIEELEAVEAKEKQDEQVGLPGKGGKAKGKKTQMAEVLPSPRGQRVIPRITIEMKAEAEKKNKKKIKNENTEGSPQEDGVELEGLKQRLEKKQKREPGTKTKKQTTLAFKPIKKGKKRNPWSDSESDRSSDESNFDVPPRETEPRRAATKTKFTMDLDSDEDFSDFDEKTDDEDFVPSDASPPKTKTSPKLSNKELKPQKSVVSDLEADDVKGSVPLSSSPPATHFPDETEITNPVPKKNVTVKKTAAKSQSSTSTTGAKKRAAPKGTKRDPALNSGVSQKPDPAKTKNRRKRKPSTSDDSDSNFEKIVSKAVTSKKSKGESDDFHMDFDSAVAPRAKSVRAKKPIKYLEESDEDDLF

On to `O=C(Nc1ccc(Nc2ccccc2)cc1)c1ccc[nH]c1=S` [T60], for which the K562 cell proliferation entry in the assay with K562 cells was “inhibited K562 cell proliferation in a dose- and time-dependent manner”. In the assay with HeLa cells [1], the “DNA replication (BrdU incorporation)” value is given as “reduced DNA replication”. Moreover, the Cell morphology result with HeLa cells [2] is “enlarged cell bodies and nuclei”. Further, the “Tumor growth at the end of two weeks” value with K562 xenografts was “strongly inhibit tumor growth comparable to etoposide”. In addition, at TOP2B [3], the half-inhibitory concentration (IC50) is ~3 µM. For the same molecule, the “Activity on TOP2” value at TOP2A [4] is on record as “less active”. Moreover, at TOP2A [5], the “Temperature up to which TOP2A protein is stabilized” value is “up to 43 C”. The “Temperature up to which TOP2B protein is stabilized” value on TOP2B [6] is “up to 43 C”.
